Drawing on patent US20110306597A1, “Nicotinamide Derivatives” (priority 2008, published 2011), this text covers IC50 for 41 molecules.

Some results are limits rather than exact numbers.

A word on the IC50: it is the concentration that inhibits the measured activity by half.

Sequence of human recombinant H-PGDS (O60760 whole entry): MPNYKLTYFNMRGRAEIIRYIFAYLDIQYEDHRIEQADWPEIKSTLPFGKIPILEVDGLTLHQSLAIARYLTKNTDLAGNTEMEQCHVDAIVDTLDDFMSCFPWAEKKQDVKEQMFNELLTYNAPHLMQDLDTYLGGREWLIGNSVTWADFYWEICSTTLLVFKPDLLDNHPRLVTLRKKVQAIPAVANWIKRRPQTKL

This assay addresses human recombinant H-PGDS (Homo sapiens, UniProt O60760). Nature of the assay: Fluorescence Intensity h-PGDS TBA Enzyme Assay. The settings on record: 1:175,000 human recombinant H-PGDS, highest inhibitor concentration typically 1 μM. In kind it is biochemical. In short, it runs like this:
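Readout is PGH2 depletion: after a 42 s reaction with 5.0 μM PGH2 and 2.5 mM glutathione (pH 8.0 Tris, 10 min inhibitor preincubation), Fe(II) converts leftover PGH2 to MDA, which forms a fluorescent TBA complex. IC50s come from 11-point, 3-fold duplicate curves, 4-parameter fit.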
For the molecule `COc1cccc(-c2ccc(C(=O)NCc3ccc(S(C)(=O)=O)cc3)cn2)c1` [Example 316, 6-(3-Methoxyphenyl)-N-[4-(methylsulfonyl)benzyl] nicotinamide], the IC50 was 0.382 µM. As for `C[C@H](CNC(=O)c1ccc(-c2cccc(F)c2)nc1)NC(=O)OCc1ccccc1` [Example 437, Benzyl [(1R)-2-({[6-(3-fluorophenyl)pyridin-3-yl]carbonyl}amino)-1-methylethyl]carbamate], the 50% inhibitory concentration (IC50) was 0.0543 µM.

For `COc1cccc(OCC(O)CNC(=O)c2ccc(-c3cccc(F)c3)nc2)c1` (centres unmarked) [Example 49, 6-(3-Fluorophenyl)-N-[2-hydroxy-3-(3-methoxyphenoxy)propyl] nicotinamide], the IC50 is 0.0108 µM. `CSc1ccc(CNC(=O)c2ccc(-c3cccc(C)c3)nc2)cc1` [Example 453, 6-(3-Methylphenyl)-N-[4-(methylthio)benzyl]nicotinamide]: the IC50 amounted to 0.102 µM.

Take `O=C(NCC1C(=O)Nc2ccccc21)c1ccc(-c2cc(F)cc(F)c2)nc1` (centres unmarked) [Example 568, 6-(3,5-Difluorophenyl)-N-[(2-oxo-2,3-dihydro-1H-indol-3-yl)methyl]nicotinamide]: the concentration for half-maximal inhibition (IC50) was determined as 0.00263 µM.

In the case of `CCOC(=O)CC(NC(=O)c1ccc(-c2ccccc2)nc1)c1ccccc1Cl` (centres unmarked) [Example 384, ethyl 3-(2-Chlorophenyl)-3-{[(6-phenylpyridin-3-yl)carbonyl]amino}propanoate], the 50% inhibitory concentration (IC50) is 0.0396 µM. Consider `CC(C)CNC(=O)c1ccc(-c2ccccc2)nc1` [Example 378, N-Isobutyl-6-phenylnicotinamide], for which the IC50 was determined as 0.021 µM. Regarding `O=C(NCCN1CCCC1)c1ccc(-c2ccc(F)cc2)nc1` [Example 469, 6-(4-Fluorophenyl)-N-(2-pyrrolidin-1-ylethyl)nicotinamide], the concentration for half-maximal inhibition (IC50) is at least 1 µM. `CN1CCC2(CC1)COC(CNC(=O)c1ccc(-c3cccc(F)c3)nc1)C2` (centres unmarked) [Example 52, 6-(3-Fluorophenyl)-N-[(8-methyl-2-oxa-8-azaspiro[4.5]dec-3-yl)methyl]nicotinamide]: the half-maximal inhibitory concentration (IC50) turned out to be 0.0776 µM. Take `COC(=O)CC(NC(=O)c1ccc(-c2cccc(F)c2)nc1)c1cccnc1` (centres unmarked) [Example 171, Methyl 3-({[6-(3-fluorophenyl)pyridin-3-yl]carbonyl}amino)-3-pyridin-3-ylpropanoate]: the IC50 was 0.0527 µM. As to `Cc1c(C(C)NC(=O)c2ccc(-c3cccc(F)c3)nc2)cnn1C` (centres unmarked) [Example 125, N-[1-(1,5-Dimethyl-1H-pyrazol-4-yl)ethyl]-6-(3-fluorophenyl)nicotinamide], the IC50 turned out to be 0.0239 µM.

For the molecule `CN1CCN(CCCNC(=O)c2ccc(-c3cccc(F)c3)nc2)CC1` [Example 111, 6-(3-Fluorophenyl)-N-[3-(4-methylpiperazin-1-yl)propyl]nicotinamide], the half-maximal inhibitory concentration (IC50) stood at 0.108 µM. In the case of `O=C(NCC1CN(CCc2ccccn2)C(=O)CO1)c1ccc(-c2cccc(F)c2)nc1` (centres unmarked) [Example 105, 6-(3-Fluorophenyl)-N-{[5-oxo-4-(2-pyridin-2-ylethyl)morpholin-2-yl]methyl}nicotinamide], the IC50 worked out at 0.0586 µM.

As for `Cc1ccc(CN2CCC(NC(=O)c3ccc(-c4ccc(F)cc4)nc3)C2=O)cc1` (centres unmarked) [Example 259, 6-(4-Fluorophenyl)-N-[1-(4-methylbenzyl)-2-oxopyrrolidin-3-yl]nicotinamide], the IC50 worked out at 0.28 µM.

`O=C(NCCN1CCCC1=O)c1ccc(-c2cccc(F)c2)nc1` [Example 183, 6-(3-Fluorophenyl)-N-[2-(2-oxopyrrolidin-1-yl)ethyl]nicotinamide]: the half-maximal inhibitory concentration (IC50) turned out to be 0.0174 µM. In the case of `O=C(Nc1cccnc1)c1ccc(-c2ccccc2)nc1` [Example 354, 6-Phenyl-N-pyridin-3-ylnicotinamide], the concentration for half-maximal inhibition (IC50) was 0.00166 µM. In the case of `O=C(NCC1CCCN(c2ccccn2)C1)c1ccc(-c2cc(F)cc(F)c2)nc1` (centres unmarked) [Example 570, 6-(3,5-Difluorophenyl)-N-[(1-pyridin-2-ylpiperidin-3-yl)methyl]nicotinamide], the IC50 stood at 0.0325 µM.

As to `O=C(Nc1ccncc1)c1ccc(-c2ccc(F)cc2)nc1` [Example 459, 6-(4-Fluorophenyl)-N-pyridin-4-ylnicotinamide], the half-inhibitory concentration (IC50) worked out at 0.222 µM. For the molecule `O=C(NCc1ccc(C(F)(F)F)cc1)c1ccc(-c2ccccc2)nc1` [Example 385, 6-Phenyl-N-[4-(trifluoromethyl)benzyl] nicotinamide], the 50% inhibitory concentration (IC50) turned out to be 0.0427 µM. For the molecule `COC(=O)CC[C@@H](NC(=O)c1ccc(-c2cccc(F)c2)nc1)C(=O)OC` [Example 66, Dimethyl N-{[6-(3-fluorophenyl)pyridin-3-yl]carbonyl}-D-glutamate], the IC50 stood at 0.0952 µM. Then `CCC1CCN(CCNC(=O)c2ccc(-c3cccc(C)c3)nc2)CC1` [Example 235, N-[2-(4-Ethylpiperidin-1-yl)ethyl]-6-(3-methylphenyl)nicotinamide], with 0.0388 µM; and “6-(3-Fluorophenyl)-N-(3- hydroxypropyl)nicotinamide [Example 435]”, with 0.0495 µM.

On to `O=C(NCCc1cccs1)c1ccc(-c2cccc(F)c2)nc1` [Example 430, 6-(3-Fluorophenyl)-N-[2-(2-thienyl)ethyl]nicotinamide], for which the half-maximal inhibitory concentration (IC50) was found to be 0.0117 µM. On to `Cc1cnc(CN2C(=O)CCC2CCNC(=O)c2ccc(-c3cccc(F)c3)nc2)cn1` (centres unmarked) [Example 56, 6-(3-Fluorophenyl)-N-(2-{1-[(5-methylpyrazin-2-yl)methyl]-5-oxopyrrolidin-2-yl}ethyl)nicotinamide], for which the concentration for half-maximal inhibition (IC50) turned out to be 0.0198 µM. Take `CC(C)(CNC(=O)c1ccc(-c2cccc(F)c2)nc1)N1CCOCC1` [Example 417, 6-(3-Fluorophenyl)-N-(2-methyl-2-morpholin-4-ylpropyl)nicotinamide]: the IC50 was 0.0401 µM. Take `O=C(NCc1noc(C(=O)N2CC[C@H](O)C2)n1)c1ccc(-c2cccc(F)c2)nc1` [Example 199, 6-(3-Fluorophenyl)-N-[(5-{[(3S)-3-hydroxypyrrolidin-1-yl]carbonyl}-1,2,4-oxadiazol-3-yl)methyl]nicotinamide]: the IC50 was found to be 0.622 µM.

In the case of `O=C(NCCc1ccc(O)cc1)c1ccc(-c2cccc(F)c2)nc1` [Example 446, 6-(3-Fluorophenyl)-N-[2-(4-hydroxyphenyl)ethyl] nicotinamide], the IC50 came to 0.00533 µM. Take `CNC(=O)N1[C@@H]2CC[C@H]1C[C@H](NC(=O)c1ccc(-c3cccc(F)c3)nc1)C2` [Example 594, (3-exo)-3-({[6-(3-Fluorophenyl)-pyridin-3-yl]carbonyl}amino)-N-methyl-8-azabicyclo[3.2.1]octane-8-carboxamide]: the IC50 was 0.017 µM.

Regarding `CCOC(=O)CC(NC(=O)c1ccc(-c2cccc(F)c2)nc1)c1ccc(OC)cc1` (centres unmarked) [Example 162, Ethyl 3-({[6-(3-fluorophenyl)pyridin-3-yl]carbonyl}amino)-3-(4-methoxyphenyl)propanoate], the IC50 turned out to be 0.0196 µM.

In the case of `O=C(NCCc1ccncc1)c1ccc(-c2ccc(F)cc2)nc1` [Example 264, 6-(4-Fluorophenyl)-N-(2-pyridin-4-ylethyl)nicotinamide], the IC50 worked out at 0.238 µM.

Consider `COC(=O)CC(NC(=O)c1ccc(-c2ccccc2)nc1)c1cccnc1` (centres unmarked) [Example 370, Methyl 3-{[(6-phenylpyridin-3-yl)carbonyl]amino}-3-pyridin-3-ylpropanoate], for which the IC50 amounted to 0.0329 µM.

As to `O=C(NCCN1CCC(O)CC1)c1ccc(-c2cccc(F)c2)nc1` [Example 32, 6-(3-Fluorophenyl)-N-[2-(4-hydroxypiperidin-1-yl)ethyl]nicotinamide], the half-maximal inhibitory concentration (IC50) amounted to 0.0311 µM.

Regarding `COC(=O)[C@@H](NC(=O)c1ccc(-c2cccc(F)c2)nc1)[C@@H](C)O` [Example 147, Methyl N-{[6-(3-fluorophenyl)pyridin-3-yl]carbonyl}-L-threoninate], the IC50 was found to be 0.381 µM.

As to `CN(C)CC(C)(C)CNC(=O)c1ccc(-c2ccc(F)cc2)nc1` [Example 266, N-[3-(Dimethylamino)-2,2-dimethylpropyl]-6-(4-fluorophenyl)nicotinamide], the 50% inhibitory concentration (IC50) was at least 1 µM. With `Cc1cccc(-c2ccc(C(=O)NCc3nc(CS(C)(=O)=O)no3)cn2)c1` [Example 222, 6-(3-Methylphenyl)-N-({3-[(methylsulfonyl)methyl]-1,2,4-oxadiazol-5-yl}methyl)nicotinamide], the IC50 was found to be 0.351 µM. For the molecule `O=C(NC(c1ccccc1)c1nc(CN2CCOCC2)no1)c1ccc(-c2cccc(F)c2)nc1` (centres unmarked) [Example 15, 6-(3-Fluorophenyl)-N-{[3-(morpholin-4-ylmethyl)-1,2,4-oxadiazol-5-yl](phenyl)methyl}nicotinamide], the concentration for half-maximal inhibition (IC50) came out at 0.0709 µM. As to `CN(C)CCNC(=O)c1ccc(-c2cccc(F)c2)nc1` [Example 158, N-[2-(Dimethylamino)ethyl]-6-(3-fluorophenyl)nicotinamide], the half-inhibitory concentration (IC50) was 0.337 µM. `CCOC(=O)C(CNC(=O)c1ccc(-c2cccc(OC)c2)nc1)c1c(F)cccc1F` (centres unmarked) [Example 331, Ethyl 2-(2,6-difluorophenyl)-3-({[6-(3-methoxyphenyl)pyridin-3-yl]carbonyl}amino) propanoate]: the IC50 was 0.234 µM. With `CC(C)Cc1nnc(CCNC(=O)c2ccc(-c3cccc(F)c3)nc2)o1` [Example 206, 6-(3-Fluorophenyl)-N-[2-(5-isobutyl-1,3,4-oxadiazol-2-yl)ethyl]nicotinamide], the IC50 was 0.0166 µM. As to `COc1cc(F)cc(-c2ccc(C(=O)NCC3CCN(C(C)=O)CC3)cn2)c1` [Example 558, N-[(1-Acetylpiperidin-4-yl)methyl]-6-(3-fluoro-5-methoxyphenyl)nicotinamide], the IC50 stood at 0.119 µM.

For `O=C(N[C@@H]1C[C@H]2CC[C@@H](C1)N2C(=O)NCCO)c1ccc(-c2cccc(F)c2)nc1` [Example 597, (3-exo)-3-({[6-(3-Fluorophenyl)-pyridin-3-yl]carbonyl}amino)-N-(2-hydroxyethyl)-8-azabicyclo[3.2.1]octane-8-carboxamide], the concentration for half-maximal inhibition (IC50) turned out to be 0.035 µM.
